Assay results reported in PubChem BioAssay AID328 (DTP/NCI, 2004).
Several values for one entry are separate records, joined by “and”; a condition that tells them apart may be missing. Equal values may be shown once. Inconclusive results and toxic doses are left out.

Tested on: BDF1 mice, P388 leukemia ip, median survival T/C
Assay: NCI In Vivo Anticancer Drug Screen. Data for tumor model P388 Leukemia (intraperitoneal) in B6D2F1 (BDF1) mice
Settings: endpoint: median survival time, higher = longer survival
Method in brief: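 In tumour-bearing mice, survival after compound treatment is set against the vehicle group and given as a quotient.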

[1] = dose: 100.0 mg/kg/injection, schedule: Q01DX009 (ip), vehicle: saline with Tween-80
[2] = dose: 100.0 mg/kg/injection, schedule: Q04DX003 (ip), vehicle: saline with Tween-80
[3] = dose: 200.0 mg/kg/injection, schedule: Q01DX009 (ip), vehicle: saline with Tween-80
[4] = dose: 200.0 mg/kg/injection, schedule: Q04DX003 (ip), vehicle: saline with Tween-80
[5] = dose: 50.0 mg/kg/injection, schedule: Q01DX009 (ip), vehicle: saline
[6] = dose: 100.0 mg/kg/injection, schedule: Q01DX009 (ip), vehicle: saline
[7] = dose: 50.0 mg/kg/injection, schedule: Q01DX009 (ip), vehicle: saline with Tween-80

## O[C@@H]1CCCC[C@@H]1n1cnc2c(=S)nc[nH]c21
[1]
  T/C: 92 % of control
[2]
  T/C: 100 % of control
[3]
  T/C: 96 % of control
[4]
  T/C: 104 % of control
dose: 400.0 mg/kg/injection, schedule: Q04DX003 (ip), vehicle: saline with Tween-80
  T/C: 100 % of control

## CCc1ccc(C(=O)N/N=C(\C)[C@]2(O)Cc3c(O)c4c(c(O)c3[C@@H](OC3CC(N)C(O)C(C)O3)C2)C(=O)c2c(OC)cccc2C4=O)cc1 (some centres undefined)
dose: 1.56 mg/kg/injection, schedule: Q01DX009 (ip), vehicle: water
  T/C: 117 % of control
dose: 3.12 mg/kg/injection, schedule: Q01DX009 (ip), vehicle: water
  T/C: 161 % of control
dose: 6.25 mg/kg/injection, schedule: Q01DX009 (ip), vehicle: water
  T/C: 152 % of control and 166 % of control
dose: 12.5 mg/kg/injection, schedule: Q01DX009 (ip), vehicle: water
  T/C: 95 % of control and 122 % of control

## CN(C)Nc1ncnc2nc[nH]c12
[5]
  T/C: 95 % of control
[6]
  T/C: 91 % of control
[2]
  T/C: 100 % of control
[4]
  T/C: 114 % of control

## CCS(=O)(=O)OCCCl
dose: 25.0 mg/kg/injection, schedule: Q01DX009 (ip), vehicle: Klucel (hydroxypropylcellulose) (HPC)
  T/C: 100 % of control
dose: 44.0 mg/kg/injection, schedule: Q01DX009 (ip), vehicle: saline
  T/C: 104 % of control
dose: 50.0 mg/kg/injection, schedule: Q01DX009 (ip), vehicle: Klucel (hydroxypropylcellulose) (HPC)
  T/C: 100 % of control
[7]
  T/C: 103 % of control
[5]
  T/C: 161 % of control
dose: 66.0 mg/kg/injection, schedule: Q01DX009 (ip), vehicle: saline
  T/C: 108 % of control
dose: 100.0 mg/kg/injection, schedule: Q01DX009 (ip), vehicle: Klucel (hydroxypropylcellulose) (HPC)
  T/C: 105 % of control
[1]
  T/C: 104 % of control
[6]
  T/C: 230 % of control and 95 % of control and 108 % of control
dose: 100.0 mg/kg/injection, schedule: Q04DX003 (ip), vehicle: saline
  T/C: 100 % of control
dose: 150.0 mg/kg/injection, schedule: Q01DX009 (ip), vehicle: saline
  T/C: 120 % of control
[3]
  T/C: 116 % of control
dose: 200.0 mg/kg/injection, schedule: Q04DX003 (ip), vehicle: saline
  T/C: 91 % of control

## O=C(Cn1ccc(=O)[nH]c1=O)c1ccc(Cl)s1
[1]
  T/C: 101 % of control and 112 % of control
[3]
  T/C: 102 % of control and 105 % of control
dose: 400.0 mg/kg/injection, schedule: Q01DX009 (ip), vehicle: saline with Tween-80
  T/C: 101 % of control and 115 % of control

## COc1ccc2c3c(c4cc(OC)c(OC)cc4c2c1)C[C@H]1CCCCN1C3
dose: 0.25 mg/kg/injection, schedule: Q01DX010 (ip), vehicle: saline
  T/C: 100 % of control
dose: 0.5 mg/kg/injection, schedule: Q01DX010 (ip), vehicle: saline
  T/C: 120 % of control
dose: 1.0 mg/kg/injection, schedule: Q01DX010 (ip), vehicle: saline
  T/C: 120 % of control
dose: 2.0 mg/kg/injection, schedule: Q01DX010 (ip), vehicle: saline
  T/C: 91 % of control

## COC(CCC#N)c1ccc(C)cc1 (centres undefined)
dose: 25.0 mg/kg/injection, schedule: Q04DX003 (sc), vehicle: olive oil, sesame oil, peanut oil
  T/C: 100 % of control
dose: 50.0 mg/kg/injection, schedule: Q04DX003 (sc), vehicle: olive oil, sesame oil, peanut oil
  T/C: 95 % of control
dose: 100.0 mg/kg/injection, schedule: Q04DX003 (sc), vehicle: olive oil, sesame oil, peanut oil
  T/C: 100 % of control

## O=NN(CCCl)C(=O)Nc1ccccc1
dose: 8.0 mg/kg/injection, schedule: Q04DX003 (ip), vehicle: saline with Tween-80
  T/C: 233 % of control
dose: 8.25 mg/kg/injection, schedule: Q04DX003 (ip), vehicle: saline with Tween-80
  T/C: 231 % of control
dose: 12.0 mg/kg/injection, schedule: Q04DX003 (ip), vehicle: saline with Tween-80
  T/C: 311 % of control
dose: 12.5 mg/kg/injection, schedule: Q04DX003 (ip), vehicle: saline with Tween-80
  T/C: 272 % of control
dose: 18.0 mg/kg/injection, schedule: Q04DX003 (ip), vehicle: saline with Tween-80
  T/C: 261 % of control
dose: 18.75 mg/kg/injection, schedule: Q04DX003 (ip), vehicle: saline with Tween-80
  T/C: 104 % of control

## N=C(N)SCCCCCCCCCCSC(=N)N
dose: 25.0 mg/kg/injection, schedule: Q01DX009 (ip), vehicle: saline with Tween-80
  T/C: 97 % of control
[7]
  T/C: 123 % of control
